In PubChem BioAssay (NCI):
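A five-concentration, 48-hour dose response in 96-well plates underlies each endpoint, interpolated linearly between surrounding concentrations. TGI: concentration producing complete growth inhibition.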

Tests used:
Test in all cases: DTP human tumour cell line panel, 48 h
SK-MEL-5 melanoma = system: SK-MEL-5 melanoma
PC-3 prostate = system: PC-3 prostate
RXF 393 renal = system: RXF 393 renal
NCI-H226 lung = system: NCI-H226 lung
HCT-116 colon = system: HCT-116 colon
SNB-75 CNS = system: SNB-75 CNS
SNB-19 CNS = system: SNB-19 CNS
LOX IMVI melanoma = system: LOX IMVI melanoma
IGROV1 ovarian = system: IGROV1 ovarian
UACC-62 melanoma = system: UACC-62 melanoma
COLO 205 colon = system: COLO 205 colon
786-0 renal = system: 786-0 renal
SR leukemia = system: SR leukemia
SF-268 CNS = system: SF-268 CNS

| SMILES | TGI (SK-MEL-5 melanoma) [µM] | TGI (PC-3 prostate) [µM] | TGI (RXF 393 renal) [µM] | TGI (NCI-H226 lung) [µM] | TGI (HCT-116 colon) [µM] | TGI (SNB-75 CNS) [µM] | TGI (SNB-19 CNS) [µM] | TGI (LOX IMVI melanoma) [µM] | TGI (IGROV1 ovarian) [µM] | TGI (UACC-62 melanoma) [µM] | TGI (COLO 205 colon) [µM] | TGI (786-0 renal) [µM] | TGI (SR leukemia) [µM] | TGI (SF-268 CNS) [µM] |
| --- | --- | --- | --- | --- | --- | --- | --- | --- | --- | --- | --- | --- | --- | --- |
| COc1ccc(N2C(=O)CC(c3c[nH]c4ncccc34)C2=O)cc1 (stereo not drawn) | > 100 | > 31.6 | 42.5 | > 100 | 45.8 | > 100 | > 100 | > 100 | 44.6 | > 96.4 | 36.5 | 49.7 | > 20 | > 100 |
| Cc1ncc([N+](=O)[O-])n1CCNC(=O)Cn1c([N+](=O)[O-])cnc1C | > 100 | > 100 |  | > 100 | > 100 | > 100 | > 100 |  | > 100 | > 100 | > 100 | > 100 | > 100 | > 100 |
| C[C@]12CC[C@H](O)CC1=CC[C@@H]1C2CC[C@]2(C)Nc3c(cnn3-c3ccc(F)cc3)CC12 (stereo partly drawn) | > 100 | > 100 | 7.7 | > 92.7 | > 100 | 16.5 | > 100 | > 100 | > 100 | > 100 |  | 16 | > 100 | > 100 |
| COc1ccc(CCc2nccn2C)cc1OC | > 100 | > 100 |  |  | > 100 |  | > 100 | > 100 | > 100 | > 100 | > 100 | > 100 | > 100 | > 100 |
| CC(C)(C)C1CCC2c3c([nH]c4ccccc34)C3C(=O)N(c4ccc5c(c4)C(=O)c4ccccc4C5=O)C(=O)C3C2C1 (stereo not drawn) | > 100 | > 100 | > 100 | > 100 | > 100 |  | > 100 | > 100 | > 100 | > 100 | > 100 | > 100 | > 100 | > 100 |
| CCc1cc2c(oc3cc(C)ccc32)c(=O)n1C |  | > 10 | > 10 | > 10 | > 10 | > 10 | > 10 | > 10 | > 10 |  |  | > 10 | > 10 | > 10 |
| COP(=O)(OC)/C(=C\c1cn(C(c2ccccc2)(c2ccccc2)c2ccccc2)cn1)NC(C)=O |  | > 100 | 83.6 | > 100 | > 100 | > 100 | > 100 | > 100 | > 100 | > 100 | > 100 | > 100 | > 100 | > 100 |
| c1ccc2cc3c(cc2c1)nc1ccccn13 | > 100 | > 100 | > 100 | > 100 | > 100 | > 100 | > 100 |  | > 100 | > 100 | > 100 | > 100 | > 100 | > 100 |
| N#Cc1nc(COCCOCc2ccc(F)cc2)oc1N | > 100 | > 100 | > 100 | > 100 | > 100 | > 100 |  | > 100 | > 100 | > 100 | > 100 | > 100 | > 100 | > 100 |
